Experimental data from patent US20240199542A1, “SUBSTITUTED PYRROLIDIN-2-ONES, SALTS THEREOF AND THEIR USE AS HERBICIDALLY ACTIVE SUBSTANCES” (Bayer Aktiengesellschaft, priority 2021, published 2024).

Assays:
Format in all cases: in vivo
[1] = tested on: Alopecurus myosuroides (ALOMY); assay: Herbicidal pre-emergence action; conditions: 1280 g/ha, graded after ca. 3 weeks
From the text: (§1) Seeds of mono- and dicotyledonous weed plants and crop plants were sown, in plastic or organic planting pots, in sandy loam and covered with soil. The compounds according to the invention, formulated in the form of wettable powders (WP) or as emulsifiable concentrates (EC), were applied to the surface of the covering soil as aqueous suspension or emulsion, with the addition of 0.5% of an additive, at an application rate of 600 1 of water/ha (converted).
(§2) Following treatment, the pots were placed in a greenhouse and kept under optimum growth conditions for the test plants. The visual grading of the damage to the test plants was carried out after ca. 3 weeks in comparison to untreated controls (herbicidal effect in percent (%): 100% effect=plants have died off, 0% effect=as control plants).
(§3) Tables A1 to A16, below, show the effects of selected compounds of the general formula (I) according to table 1 on various harmful plants and an application rate corresponding to 1280 g/ha or lower obtained by the experimental procedure mentioned above.

Avena fatua (AVEFA) [2] = assay: Herbicidal pre-emergence action; conditions: 1280 g/ha, graded after ca. 3 weeks
From the text: as §1, §2, §3

[3] = tested on: Echinochloa crus-galli (ECHCG); assay: Herbicidal pre-emergence action; conditions: 1280 g/ha, graded after ca. 3 weeks
From the text: as §1, §2, §3

[4] = tested on: Polygonum convolvulus (POLCO); assay: Herbicidal pre-emergence action; conditions: 1280 g/ha, graded after ca. 3 weeks
From the text: as §1, §2, §3

[5] = tested on: Echinochloa crus-galli (ECHCG); assay: Herbicidal post-emergence action; conditions: 1280 g/ha, assessed after ca. 3 weeks
From the text: (§4) Seeds of mono- and dicotyledonous weed plants and crop plants were sown, in plastic or organic planting pots, in sandy loam, covered with soil and grown in a greenhouse under controlled growth conditions. 2 to 3 weeks after sowing, the test plants were sprayed in the single-leaf stage. The compounds according to the invention, formulated in form of wettable powders (WP) or as emulsifiable concentrates (EC), were sprayed onto the green plant parts as aqueous suspension or emulsion, with the addition of 0.5% of an additive, at an application rate of 600 1 of water/ha (converted). The test plants were placed in the greenhouse for ca. 3 weeks under optimum growth conditions, and then the effect of the preparations was assessed visually in comparison with untreated controls (herbicidal effect in percent (%): 100% effect=plants have died off, 0% effect=as control plants).
(§5) Tables B1 to B16 below show the effects of selected compounds of the general formula (I) according to table 1 on various harmful plants and an application rate corresponding to 1280 g/ha or 320 g/ha obtained by the experimental procedure mentioned above.

Setaria viridis (SETVI) [6] = assay: Herbicidal post-emergence action; conditions: 1280 g/ha, assessed after ca. 3 weeks
From the text: as §4, §5

[7] = tested on: Alopecurus myosuroides (ALOMY); assay: Herbicidal post-emergence action; conditions: 1280 g/ha, assessed after ca. 3 weeks
From the text: as §4, §5

[8] = tested on: Lolium multiflorum (LOLMU); assay: Herbicidal post-emergence action; conditions: 1280 g/ha, assessed after ca. 3 weeks
From the text: as §4, §5

Veronica persica (VERPE) = assay: Herbicidal pre-emergence action; conditions: 1280 g/ha, graded after ca. 3 weeks
From the text: as §1, §2, §3

[9] = tested on: Lolium multiflorum (LOLMU); assay: Herbicidal pre-emergence action; conditions: 1280 g/ha, graded after ca. 3 weeks
From the text: as §1, §2, §3

Setaria viridis (SETVI) [10] = assay: Herbicidal pre-emergence action; conditions: 1280 g/ha, graded after ca. 3 weeks
From the text: as §1, §2, §3

Avena fatua (AVEFA) [11] = assay: Herbicidal post-emergence action; conditions: 1280 g/ha, assessed after ca. 3 weeks
From the text: as §4, §5

[12] = tested on: Cyperus esculentus (CYPES); assay: Herbicidal pre-emergence action; conditions: 1280 g/ha, graded after ca. 3 weeks
From the text: as §1, §2, §3

In the case of `O=C(CC1CCC(=O)N1Cc1cccc(F)c1F)NC(Cc1ccccc1)C(=O)O` (mixture of isomers) [Example I-044], the “Pre-emergence activity against ALOMY” value [1] is reported as 80%, the “Pre-emergence activity against AVEFA” value (Avena fatua (AVEFA) [2]) is reported as 90% and the “Pre-emergence activity against ECHCG” value [3] is reported as 80%. For the same molecule, the “Pre-emergence activity against POLCO” value [4] was 90%, the “Post-emergence activity against ECHCG” value [5] was 90% and the “Post-emergence activity against SETVI” value (Setaria viridis (SETVI) [6]) was 80%.

In the case of `CC(C)CC(NC(=O)CC1CCC(=O)N1Cc1cccc(F)c1F)C(=O)O` (mixture of isomers) [Example I-045], the “Pre-emergence activity against AVEFA” value (Avena fatua (AVEFA) [2]) is reported as 90%, the “Pre-emergence activity against ECHCG” value [3] is reported as 80% and the “Post-emergence activity against ALOMY” value [7] is reported as 80%. The “Post-emergence activity against LOLMU” value [8] was 80% and the “Post-emergence activity against SETVI” value (Setaria viridis (SETVI) [6]) was 80%.

For `Cc1ccc2c(c1)C(NC(=O)CC1CCC(=O)N1Cc1cccc(F)c1F)C(C)C2` (mixture of isomers) [Example I-106], the “Pre-emergence activity against VERPE” value (Veronica persica (VERPE)) was 80%.

`COC(=O)CC1CCC(=O)N1Cc1cccc(F)c1F` (racemic) [Example I-008] was tested, and the “Pre-emergence activity against ALOMY” value [1] was 90%, the “Pre-emergence activity against AVEFA” value (Avena fatua (AVEFA) [2]) was 100% and the “Pre-emergence activity against ECHCG” value [3] was 90%. The “Pre-emergence activity against LOLMU” value [9] was 80%, the “Pre-emergence activity against POLCO” value [4] was 90% and the “Pre-emergence activity against SETVI” value (Setaria viridis (SETVI) [10]) was 90%. The “Post-emergence activity against ALOMY” value [7] was 80%, the “Post-emergence activity against AVEFA” value (Avena fatua (AVEFA) [11]) was 90% and the “Post-emergence activity against ECHCG” value [5] was 90%. For the same molecule, the “Post-emergence activity against LOLMU” value [8] was 80% and the “Post-emergence activity against SETVI” value (Setaria viridis (SETVI) [6]) was 80%.

`CCOC(=O)CC1CCC(=O)N1Cc1cccc(F)c1F` (racemic) [Example I-019] was tested, and the “Pre-emergence activity against ALOMY” value [1] was 90%, the “Pre-emergence activity against AVEFA” value (Avena fatua (AVEFA) [2]) was 100% and the “Pre-emergence activity against CYPES” value [12] was 80%. For the same molecule, the “Pre-emergence activity against ECHCG” value [3] was 90%, the “Pre-emergence activity against LOLMU” value [9] was 90% and the “Pre-emergence activity against POLCO” value [4] was 90%. For the same molecule, the “Pre-emergence activity against SETVI” value (Setaria viridis (SETVI) [10]) was 90%, the “Post-emergence activity against ALOMY” value [7] was 80% and the “Post-emergence activity against AVEFA” value (Avena fatua (AVEFA) [11]) was 100%. For the same molecule, the “Post-emergence activity against ECHCG” value [5] was 80% and the “Post-emergence activity against LOLMU” value [8] was 90%.

For `O=C(CC1CCC(=O)N1Cc1cccc(F)c1F)OCC1CC1` (racemic) [Example I-020], the “Pre-emergence activity against ALOMY” value [1] was 80%, the “Pre-emergence activity against AVEFA” value (Avena fatua (AVEFA) [2]) was 100% and the “Pre-emergence activity against ECHCG” value [3] was 80%. The “Pre-emergence activity against LOLMU” value [9] was 80%, the “Pre-emergence activity against VERPE” value (Veronica persica (VERPE)) was 80% and the “Post-emergence activity against ALOMY” value [7] was 80%. The “Post-emergence activity against AVEFA” value (Avena fatua (AVEFA) [11]) was 90%, the “Post-emergence activity against ECHCG” value [5] was 90% and the “Post-emergence activity against LOLMU” value [8] was 80%.

In the case of `O=C(CC1CCC(=O)N1Cc1cccc(F)c1F)OCCSc1ccccc1` (racemic) [Example I-022], the “Pre-emergence activity against ALOMY” value [1] is reported as 90%, the “Pre-emergence activity against AVEFA” value (Avena fatua (AVEFA) [2]) is reported as 90% and the “Pre-emergence activity against SETVI” value (Setaria viridis (SETVI) [10]) is reported as 80%. For the same molecule, the “Post-emergence activity against AVEFA” value (Avena fatua (AVEFA) [11]) was 90%, the “Post-emergence activity against ECHCG” value [5] was 90% and the “Post-emergence activity against LOLMU” value [8] was 80%. For the same molecule, the “Post-emergence activity against SETVI” value (Setaria viridis (SETVI) [6]) was 90%.

With `O=C(CC1CCC(=O)N1Cc1cccc(F)c1F)OC1CCC1` (racemic) [Example I-024] the “Pre-emergence activity against ALOMY” value [1] was 90%, the “Pre-emergence activity against AVEFA” value (Avena fatua (AVEFA) [2]) was 100% and the “Pre-emergence activity against CYPES” value [12] was 90%. The “Pre-emergence activity against ECHCG” value [3] was 80%, the “Pre-emergence activity against LOLMU” value [9] was 90% and the “Pre-emergence activity against POLCO” value [4] was 80%. For the same molecule, the “Pre-emergence activity against SETVI” value (Setaria viridis (SETVI) [10]) was 80%, the “Post-emergence activity against ALOMY” value [7] was 90% and the “Post-emergence activity against AVEFA” value (Avena fatua (AVEFA) [11]) was 90%. The “Post-emergence activity against ECHCG” value [5] was 90%, the “Post-emergence activity against LOLMU” value [8] was 90% and the “Post-emergence activity against SETVI” value (Setaria viridis (SETVI) [6]) was 80%.

`COc1ccc(OCCOC(=O)CC2CCC(=O)N2Cc2cccc(F)c2F)cc1` (racemic) [Example I-031] was tested, and the “Pre-emergence activity against ALOMY” value [1] was 90%, the “Pre-emergence activity against AVEFA” value (Avena fatua (AVEFA) [2]) was 100% and the “Pre-emergence activity against CYPES” value [12] was 80%. The “Pre-emergence activity against ECHCG” value [3] was 80%, the “Pre-emergence activity against POLCO” value [4] was 80% and the “Post-emergence activity against ALOMY” value [7] was 90%. For the same molecule, the “Post-emergence activity against ECHCG” value [5] was 90%, the “Post-emergence activity against LOLMU” value [8] was 90% and the “Post-emergence activity against SETVI” value (Setaria viridis (SETVI) [6]) was 80%.

`Cc1ccc(CN2C(=O)CCC2CC(=O)O)c(F)c1F` (racemic) [Example I-035] was tested, and the “Pre-emergence activity against AVEFA” value (Avena fatua (AVEFA) [2]) was 100%, the “Pre-emergence activity against ECHCG” value [3] was 80% and the “Post-emergence activity against ALOMY” value [7] was 80%. The “Post-emergence activity against AVEFA” value (Avena fatua (AVEFA) [11]) was 90%, the “Post-emergence activity against ECHCG” value [5] was 90% and the “Post-emergence activity against LOLMU” value [8] was 80%. The “Post-emergence activity against SETVI” value (Setaria viridis (SETVI) [6]) was 100%.

With `CC(C)C(C)OC(=O)CC1CCC(=O)N1Cc1cccc(F)c1F` (racemic) [Example I-036] the “Pre-emergence activity against ALOMY” value [1] was 90%, the “Pre-emergence activity against AVEFA” value (Avena fatua (AVEFA) [2]) was 100% and the “Pre-emergence activity against ECHCG” value [3] was 80%. The “Pre-emergence activity against LOLMU” value [9] was 80%, the “Pre-emergence activity against POLCO” value [4] was 80% and the “Pre-emergence activity against SETVI” value (Setaria viridis (SETVI) [10]) was 100%. The “Pre-emergence activity against VERPE” value (Veronica persica (VERPE)) was 90%, the “Post-emergence activity against ALOMY” value [7] was 80% and the “Post-emergence activity against AVEFA” value (Avena fatua (AVEFA) [11]) was 90%. The “Post-emergence activity against ECHCG” value [5] was 90%.

`NC(=O)CC1CCC(=O)N1Cc1cccc(F)c1F` (racemic) [Example I-057] was tested, and the “Pre-emergence activity against ALOMY” value [1] was 90%, the “Pre-emergence activity against AVEFA” value (Avena fatua (AVEFA) [2]) was 80% and the “Pre-emergence activity against CYPES” value [12] was 100%. The “Pre-emergence activity against POLCO” value [4] was 80% and the “Pre-emergence activity against SETVI” value (Setaria viridis (SETVI) [10]) was 80%.

`Cc1ccc(CN2C(=O)CCC2CC(=O)NS(C)(=O)=O)c(F)c1F` (racemic) [Example I-087] was tested, and the “Pre-emergence activity against ALOMY” value [1] was 90% and the “Pre-emergence activity against VERPE” value (Veronica persica (VERPE)) was 100%.

With `O=C(CC1CCC(=O)N1Cc1cccc(Cl)c1Cl)NS(=O)(=O)C(F)F` (racemic) [Example I-095] the “Pre-emergence activity against VERPE” value (Veronica persica (VERPE)) was 80%.

`O=C(CC1CCC(=O)N1Cc1cccc(F)c1F)NCc1ccc(Cl)nc1` (racemic) [Example I-102] was tested, and the “Pre-emergence activity against POLCO” value [4] was 80% and the “Pre-emergence activity against VERPE” value (Veronica persica (VERPE)) was 90%.

With `CS(=O)(=O)NC(=O)CC1CCC(=O)N1Cc1cccc(Cl)c1Cl` (racemic) [Example I-105] the “Pre-emergence activity against VERPE” value (Veronica persica (VERPE)) was 90%.

In the case of `CC[C@@H](C)[C@@H](NC(=O)CC1CCC(=O)N1Cc1cccc(F)c1F)C(=O)O` (single isomer, unassigned) [Example I-043], the “Pre-emergence activity against ALOMY” value [1] is reported as 90%, the “Pre-emergence activity against AVEFA” value (Avena fatua (AVEFA) [2]) is reported as 100% and the “Pre-emergence activity against ECHCG” value [3] is reported as 90%. For the same molecule, the “Pre-emergence activity against LOLMU” value [9] was 80%, the “Pre-emergence activity against SETVI” value (Setaria viridis (SETVI) [10]) was 90% and the “Post-emergence activity against ALOMY” value [7] was 80%. For the same molecule, the “Post-emergence activity against AVEFA” value (Avena fatua (AVEFA) [11]) was 80%, the “Post-emergence activity against ECHCG” value [5] was 80% and the “Post-emergence activity against LOLMU” value [8] was 80%. The “Post-emergence activity against SETVI” value (Setaria viridis (SETVI) [6]) was 80%.
